# Measurements from EP0347459A1, “CEPHALOSPORIN COMPOUNDS OR THEIR SALTS, PROCESS FOR THEIR PREPARATION, AND PHARMACEUTICAL COMPOSITIONS” (TEIJIN LIMITED, priority 1987, dated 1988).
# Where two headings read alike, the source gives them in different places.
# Experiments:
# Type in all cases: cell-based
# P.aeruginosa 88 = experiment: MIC values of 10 kinds of Pseudomonas aeruginosa; settings: read-out: MIC values
# Description: (§1) An in vitro antibacterial activity was measured by an agar disc dilution method.
# (§2) Varied test bacteria were cultivated overnight in triptophane-soybroth. A Mueller Hinton agar containing the compound of this invention in varied concentrations was streaked with one platinum loopful of each of the bacteria (number of living cells 10^6/ml).
# (§3) MIC values of 10 kinds of Pseudomonas aeruginosa were measured for Compound III, Comparative Example B and CAZ.
# P.aeruginosa 0-11 = experiment: MIC values of 10 kinds of Pseudomonas aeruginosa; settings: Pseudomonas aeruginosa, 011, 16 h, read-out: MIC values
# Description: as §1, §2, §3
# P.aeruginosa Tid53 = experiment: MIC values of 10 kinds of Pseudomonas aeruginosa; settings: read-out: MIC values
# Description: as §1, §2, §3
# P.aeruginosa N-3 = experiment: MIC values of 10 kinds of Pseudomonas aeruginosa; settings: N3, 16 h, read-out: MIC values
# Description: as §1, §2, §3
# P.aeruginosa 64 = experiment: MIC values of 10 kinds of Pseudomonas aeruginosa; settings: read-out: MIC values
# Description: as §1, §2, §3
# P.aeruginosa N-26 = experiment: MIC values of 10 kinds of Pseudomonas aeruginosa; settings: N26, 16 h, read-out: MIC values
# Description: as §1, §2, §3
# P.aeruginosa ATCC27577 = experiment: MIC values of 10 kinds of Pseudomonas aeruginosa; settings: read-out: MIC values
# Description: as §1, §2, §3
# P.aeruginosa NO. 97 = experiment: MIC values of 10 kinds of Pseudomonas aeruginosa; settings: read-out: MIC values
# Description: as §1, §2, §3
# P.aeruginosa N-2 = experiment: MIC values of 10 kinds of Pseudomonas aeruginosa; settings: N2, 16 h, read-out: MIC values
# Description: as §1, §2, §3
# P.aeruginosa ATCC27318 = experiment: MIC values of 10 kinds of Pseudomonas aeruginosa; settings: read-out: MIC values
# Description: as §1, §2, §3
# P.aeruginosa PAD1 = experiment: In vitro antibacterial activity, agar disc dilution method; settings: Pseudomonas aeruginosa, read-out: minimum growth inhibitory concentration (MIC)
# Description: as §1, §2
# K.pneumoniae PCI602 = experiment: as above; settings: Klebsiella pneumoniae, read-out: minimum growth inhibitory concentration (MIC)
# Description: as §1, §2
# S.marcescens IAM1184 = experiment: as above; settings: Serratia marcescens, read-out: minimum growth inhibitory concentration (MIC)
# Description: as §1, §2
# S.aureus 209p NIHJ JC1 = experiment: as above; settings: Staphylococcus aureus, read-out: minimum growth inhibitory concentration (MIC)
# Description: as §1, §2
# P.morganii IFO3445 = experiment: as above; settings: Morganella morganii, read-out: minimum growth inhibitory concentration (MIC)
# Description: as §1, §2
# P.vulgalis OX-11 = experiment: as above; settings: read-out: minimum growth inhibitory concentration (MIC)
# Description: as §1, §2
# S.typhi 901 = experiment: as above; settings: Salmonella enterica, 16 h, read-out: minimum growth inhibitory concentration (MIC)
# Description: as §1, §2
# M.luteus ATCC9341 = experiment: as above; settings: Micrococcus luteus, read-out: minimum growth inhibitory concentration (MIC)
# Description: as §1, §2
# P.aeruginosa NCTC1049 = experiment: as above; settings: Pseudomonas aeruginosa, read-out: minimum growth inhibitory concentration (MIC)
# Description: as §1, §2
# S.pyogenes Cook = experiment: as above; settings: Streptococcus pyogenes, read-out: minimum growth inhibitory concentration (MIC)
# Description: as §1, §2
# E.cloacae 963 = experiment: as above; settings: read-out: minimum growth inhibitory concentration (MIC)
# Description: as §1, §2
# S.enteritidis G14 = experiment: as above; settings: Salmonella enterica, read-out: minimum growth inhibitory concentration (MIC)
# Description: as §1, §2
# P.aeruginosa IFO3445 = experiment: as above; settings: Pseudomonas aeruginosa, read-out: minimum growth inhibitory concentration (MIC)
# Description: as §1, §2
# S. aureus Terajima = experiment: as above; settings: Staphylococcus aureus, read-out: minimum growth inhibitory concentration (MIC)
# Description: as §1, §2
# [1] = P.aeruginosa PAD1, Mueller Hinton agar, 10^6/ml, 37°C for 16 hours
# [2] = K.pneumoniae PCI602, Mueller Hinton agar, 10^6/ml, 37°C for 16 hours
# [3] = S.marcescens IAM1184, Mueller Hinton agar, 10^6/ml, 37°C for 16 hours
# [4] = S.aureus 209p NIHJ JC1, Mueller Hinton agar, 10^6/ml, 37°C for 16 hours
# [5] = P.morganii IFO3445, Mueller Hinton agar, 10^6/ml, 37°C for 16 hours
# [6] = P.vulgalis OX-11, Mueller Hinton agar, 10^6/ml, 37°C for 16 hours
# [7] = M.luteus ATCC9341, Mueller Hinton agar, 10^6/ml, 37°C for 16 hours
# [8] = P.aeruginosa NCTC1049, Mueller Hinton agar, 10^6/ml, 37°C for 16 hours
# [9] = S.pyogenes Cook, Mueller Hinton agar, 10^6/ml, 37°C for 16 hours
# [10] = Enterobacter cloacae, E.cloacae 963, Mueller Hinton agar, 10^6/ml, 37°C for 16 hours
# [11] = S.enteritidis G14, Mueller Hinton agar, 10^6/ml, 37°C for 16 hours
# [12] = P.aeruginosa IFO3445, Mueller Hinton agar, 10^6/ml, 37°C for 16 hours
# [13] = S. aureus Terajima, Mueller Hinton agar, 10^6/ml, 37°C for 16 hours
smiles,measurement,setting,value
"CC(C)(ON=C(C(=O)NC1C(=O)N2C(C(=O)[O-])=C(C[n+]3ccc4cc(O)c(O)cc4c3)CSC12)c1csc(N)n1)C(=O)O [Comparative Compound B, (6R,7R)-7-[(Z)-2-(2-amino-l,3-thiazol-4-yl)-2-(2-carboxypropyl-2-yloxyimino)acetamide]-3-(6,7-dihydroxy-2-isoquinolinium)methyl-3-cephem-4-carboxylate, reference compound]",MIC,"P.aeruginosa 88; Pseudomonas aeruginosa, 16 h, P.aeruginosa 88 (Table II)",0.025 µg/mL
same,MIC,P.aeruginosa 0-11; P.aeruginosa 0-11 (Table II),0.05 µg/mL
same,MIC,"P.aeruginosa Tid53; 16 h, P.aeruginosa Tid53 (Table II)",0.05 µg/mL
same,MIC,P.aeruginosa N-3; P.aeruginosa N-3 (Table II),0.05 µg/mL
same,MIC,"P.aeruginosa 64; Pseudomonas aeruginosa, 16 h, P.aeruginosa 64 (Table II)",0.05 µg/mL
same,MIC,P.aeruginosa N-26; P.aeruginosa N-26 (Table II),0.1 µg/mL
same,MIC,"P.aeruginosa ATCC27577; 16 h, P.aeruginosa ATCC27577 (Table II)",0.005 µg/mL
same,MIC,"P.aeruginosa NO. 97; 16 h, P.aeruginosa NO. 97 (Table II)",0.025 µg/mL
same,MIC,P.aeruginosa N-2; P.aeruginosa N-2 (Table II),0.05 µg/mL
same,MIC,"P.aeruginosa ATCC27318; 16 h, P.aeruginosa ATCC27318 (Table II)",0.05 µg/mL
same,MIC,P.aeruginosa PAD1; [1],0.025 µg/mL
same,MIC,K.pneumoniae PCI602; [2],0.005 µg/mL
same,MIC,S.marcescens IAM1184; [3],0.005 µg/mL
same,MIC,S.aureus 209p NIHJ JC1; [4],12.5 µg/mL
same,MIC,P.morganii IFO3445; [5],0.005 µg/mL
same,MIC,P.vulgalis OX-11; [6],0.005 µg/mL
same,MIC,S.typhi 901,0.005 µg/mL
same,MIC,M.luteus ATCC9341; [7],3.1 µg/mL
same,MIC,P.aeruginosa NCTC1049; [8],0.0125 µg/mL
same,MIC,S.pyogenes Cook; [9],1.6 µg/mL
same,MIC,E.cloacae 963; [10],0.005 µg/mL
same,MIC,S.enteritidis G14; [11],0.005 µg/mL
same,MIC,P.aeruginosa IFO3445; [12],0.025 µg/mL
same,MIC,S. aureus Terajima; [13],3.1 µg/mL
"CC(C)(O/N=C(\C(=O)N[C@@H]1C(=O)N2C(C(=O)[O-])=C(C[n+]3ccccc3)CS[C@H]12)c1csc(N)n1)C(=O)O [CAZ, (6R,7R)-7-[(Z)-2-(2-amino-1,3-thiazol-4-yl)-2-(2-carbcxypropyl-2-yloxyimino)acetamide]-3-(l-pyridinium)methyl-3-cephem-4-carboxylate, reference compound]",MIC,"P.aeruginosa 88; Pseudomonas aeruginosa, 88, 16 h",0.8 µg/mL
same,MIC,P.aeruginosa 0-11,3.1 µg/mL
same,MIC,"P.aeruginosa Tid53; TID53, 16 h",6.3 µg/mL
same,MIC,P.aeruginosa N-3,1.6 µg/mL
same,MIC,"P.aeruginosa 64; Pseudomonas aeruginosa, 64, 16 h",3.1 µg/mL
same,MIC,P.aeruginosa N-26,1.6 µg/mL
same,MIC,"P.aeruginosa ATCC27577; ATCC27577, 16 h",0.2 µg/mL
same,MIC,"P.aeruginosa NO. 97; NO.97, 16 h",3.1 µg/mL
same,MIC,P.aeruginosa N-2,0.8 µg/mL
same,MIC,"P.aeruginosa ATCC27318; ATCC27318, 16 h",1.6 µg/mL
same,MIC,"P.aeruginosa PAD1; PAD1, 16 h",0.4 µg/mL
same,MIC,"K.pneumoniae PCI602; PCI602, 16 h",0.025 µg/mL
same,MIC,"S.marcescens IAM1184; IAM1184, 16 h",0.025 µg/mL
same,MIC,S.aureus 209p NIHJ JC1; 16 h,6.3 µg/mL
same,MIC,"P.morganii IFO3445; IFO3445, 16 h",0.0125 µg/mL
same,MIC,P.vulgalis OX-11; 16 h,0.005 µg/mL
same,MIC,S.typhi 901,0.1 µg/mL
same,MIC,"M.luteus ATCC9341; ATCC9341, 16 h",0.4 µg/mL
same,MIC,"P.aeruginosa NCTC1049; NCTC1049, 16 h",0.4 µg/mL
same,MIC,S.pyogenes Cook; 16 h,0.4 µg/mL
same,MIC,"E.cloacae 963; Enterobacter cloacae, 963, 16 h",0.05 µg/mL
same,MIC,"S.enteritidis G14; ENTERITIDIS, 16 h",0.005 µg/mL
same,MIC,"P.aeruginosa IFO3445; IFO3445, 16 h",0.4 µg/mL
same,MIC,S. aureus Terajima; 16 h,1.6 µg/mL
"CON=C(C(=O)NC1C(=O)N2C(C(=O)[O-])=C(C[n+]3ccc4cc(O)c(O)cc4c3)CSC12)c1nsc(N)n1 [Compound I, (6R,7R)-7-[(Z)-2-(5-amino-1,2,4-thiadiazol-3-yl-2-methoxyimino)acetamide]-3-(6,7-dihydroxy-2-isoquinolinium)methyl-3-cephem-4-carboxylate]",MIC,P.aeruginosa PAD1; [1],12.5 µg/mL
same,MIC,K.pneumoniae PCI602; [2],0.005 µg/mL
same,MIC,S.marcescens IAM1184; [3],0.005 µg/mL
same,MIC,S.aureus 209p NIHJ JC1; [4],1.6 µg/mL
same,MIC,P.morganii IFO3445; [5],0.005 µg/mL
same,MIC,P.vulgalis OX-11; [6],0.005 µg/mL
same,MIC,S.typhi 901,0.005 µg/mL
same,MIC,M.luteus ATCC9341; [7],0.1 µg/mL
same,MIC,P.aeruginosa NCTC1049; [8],0.2 µg/mL
same,MIC,S.pyogenes Cook; [9],0.05 µg/mL
same,MIC,E.cloacae 963; [10],0.005 µg/mL
same,MIC,S.enteritidis G14; [11],0.005 µg/mL
same,MIC,P.aeruginosa IFO3445; [12],12.5 µg/mL
same,MIC,S. aureus Terajima; [13],1.6 µg/mL
